Values joined by “and” are separate entries in the source; they are usually repeats but may differ in a detail not shown here. Equal values may be shown once. Read-outs that look alike come from different tables or passages of the source.
What was measured:
BRISC = molecular target: T1, BRISC (Homo sapiens, UniProt P46736+Q15018+Q9NXR7); experiment: BRISC DUB activity assay (IQF K63-linked diubiquitin); assay type: biochemical
T1 construct: made in house; host or cells: Spodoptera frugiperda (Sf9) insect cells, MultiBac
Description: IQF assays were performed in DUB reaction buffer containing 50 mM HEPES–NaOH pH 7.0, 100 mM NaCl, 0.1 mg ml^−1 BSA, 1 mM DTT and 0.03% v/v Brij-35. […] The final concentration of BRISC WT, all BRISC mutants, HsBRISCΔLoop, MmBRISC and DrBRISCΔNΔC was 1 nM. Other enzymes were tested at the following concentrations: 5 nM ARISC (FL), 10 nM CfBRISCΔNΔC, 250 nM AMSH* (ref. [43]), 500 nM USP2 and 1 μM trypsin (Sigma, 9002-07-7). For Michaelis–Menten experiments, 1 nM BRISC with 0–1 μM IQF K63-linked diubiquitin substrate was used. Michaelis–Menten analyses and Lineweaver–Burk plots were calculated using GraphPad Prism (version 9.0).
To assess enzymatic activity, BRISC complexes were diluted to concentrations between 1 nM and 50 nM. […] Then, 20-μl enzyme reactions were carried out in 384-well black flat-bottom low-flange plates (Corning, 35373). DUB activity was measured using IQF K63-linked diubiquitin (LifeSensors, DU6303) at 50 nM. Cleaved diubiquitin was monitored by measuring fluorescence intensity (excitation, 544 nm; emission, 575 nm; dichroic mirror, 560 nm). Fluorescence intensity was measured every minute for 30 min at 30 °C. Fluorescence intensity units were plotted against time to generate a linear reaction progress curve, where the initial velocity (V0) corresponds to the gradient of the curve (typically achieved within 15 min). IC50 values were calculated using the GraphPad Prism (version 9.0) built-in dose–response equation for inhibitor concentration versus response (variable slope).

THP-1 cells = experiment: THP-1 live cell percentage; assay type: cell-based; settings: THP-1, hIFNα2 25 ng/mL, 4 μM compound, 16 h
Description: THP-1 in vitro experiments
THP-1-DualTM cells (InvivoGen), derived from a human monocytic cell line, isolated from a patient with acute monocytic leukaemia, were cultured as per manufacturer’s guidance. Cells were seeded at 1x10^6 cells/mL in RPMI1640 media containing 10% fetal bovine serum (FBS), 1% penicillin-streptomycin (PS) (Gibco Laboratories) with DMSO (0.1%) (control) or in media containing JMS-175- […]
ng/mL) (Merck Life Science), ODN 2216 (1 µM) (Miltenyi Biotec), or Poly:IC (1 µg/mL) (InvivoGen).
Tofacitinib (Cambridge Biosciences) at 0.4 µM was used for comparison against a known JAK inhibitor.
Cells were centrifuged at 300 g for 5 minutes. Supernatant was removed and subjected to simultaneous study of the NF -κB pathway, by monitoring the activity of secreted alkaline phosphatase reporter (SEAP), and the IRF pathway, by assessing the activity o f a secreted Lucia luciferase using QUANTI - Blue ™ Solution and QUANTI -Luc™ 4 Lucia/Gaussia (InvivoGen), respectively, as per manufacturer’s instructions. Pelleted cells were used for FACS analysis using IFNα/β R1 APC-conjugated antibody or isotype control (Biotechne, FAB245A and IC002A), or unstained staining procedure with and without Zombie GreenTM (Biolegend). Samples were analysed using CytoFlex LX (Beckman) (50,000 live cells per condition). Median fluorescence intensity for APC channel gated on single cell live cells was analysed and compared as a percentage to control (no stimulation condition). […]

Structure (SMILES): O=C(NC1C2CNCC21)c1nn(C(=O)c2c(Cl)cccc2Cl)cc1NC(=O)c1c(Cl)cccc1Cl (stereo not drawn) [FX-171-C]
- IC50 (BRISC; 32-point dose-response, biphasic fit, read-out: IC50(1), biphasic curve): 7200 nM
- IC50 (BRISC; 32-point dose-response, biphasic fit, read-out: IC50(2), biphasic curve): 149 nM
- remaining activity at 0.35 µM (BRISC; BRISC WT, FX-171-C 0.35 μM, read-out: Normalised V0): 54.2%
- remaining activity at 6.25 µM (BRISC; BRISC WT, FX-171-C 6.25 μM, read-out: Normalised V0): 13%
- IC50 (BRISC; FX-171-C IC50, BRISC WT, mutant panel (Extended Data Fig. 7c)): 600 nM
- Normalised V0 (BRISC; Fig. 1g, BRISC, FX-171-C 0.0599997 μM): 1.019
- Normalised V0 (BRISC; Fig. 1g, BRISC, FX-171-C 0.0799994 μM): 0.9329 and 1.215 and 0.984
- Normalised V0 (BRISC; Fig. 1g, BRISC, FX-171-C 0.119998 μM): 0.8991 and 1.297 and 1.1131
- Normalised V0 (BRISC; Fig. 1g, BRISC, FX-171-C 0.199996 μM): 0.9109 and 1.1 and 0.9714
- Normalised V0 (BRISC; Fig. 1g, BRISC, FX-171-C 0.499975 μM): 0.8337 and 0.8541 and 0.839
- Normalised V0 (BRISC; Fig. 1g, BRISC, FX-171-C 0.799936 μM): 0.8201 and 0.7671 and 0.7222
- Normalised V0 (BRISC; Fig. 1g, BRISC, FX-171-C 1.25984 μM): 0.7744 and 0.5965 and 0.5179
- Normalised V0 (BRISC; Fig. 1g, BRISC, FX-171-C 1.9996 μM): 0.7381 and 0.4197 and 0.4126
- Normalised V0 (BRISC; Fig. 1g, BRISC, FX-171-C 3.159 μM): 0.4028 and 0.2971 and 0.3289
- Normalised V0 (BRISC; Fig. 1g, BRISC, FX-171-C 5.19739 μM): 0.6152 and 0.3188 and 0.3118
- remaining activity at 0.0599997 µM (BRISC; HsBRISC, FX-171-C 0.0599997 μM, read-out: Normalised V0): 102%
- remaining activity at 0.199996 µM (BRISC; HsBRISC, FX-171-C 0.199996 μM, read-out: Normalised V0): 91.1%
- remaining activity at 0.499975 µM (BRISC; HsBRISC, FX-171-C 0.499975 μM, read-out: Normalised V0): 83.4%
- remaining activity at 0.799937 µM (BRISC; HsBRISC, FX-171-C 0.799937 μM, read-out: Normalised V0): 82%
- remaining activity at 3.159 µM (BRISC; HsBRISC, FX-171-C 3.159 μM, read-out: Normalised V0): 40.3%
- remaining activity at 19.96 µM (BRISC; HsBRISC, FX-171-C 19.96 μM, read-out: Normalised V0): 18.8%
- remaining activity at 31.4999 µM (BRISC; HsBRISC, FX-171-C 31.4999 μM, read-out: Normalised V0): 18.9%
- remaining activity at 79.7601 µM (BRISC; HsBRISC, FX-171-C 79.7601 μM, read-out: Normalised V0): 22.3%
- remaining activity at 125.99 µM (BRISC; HsBRISC, FX-171-C 125.99 μM, read-out: Normalised V0): 16.2%
- IC50 (BRISC; IQF K63-linked diubiquitin substrate, read-out: IC50, inhibition of BRISC DUB activity): 1400 nM
- Normalised V0 (BRISC; [Inhibitor] 0.013 μM, replicate columns): 0.9661 and 1.259 and 1.028 and 1.106 and 0.9509 and 0.8874
- Normalised V0 (BRISC; [Inhibitor] 0.02 μM, replicate columns): 0.8164 and 1.359 and 1.027
- Normalised V0 (BRISC; [Inhibitor] 0.0399999 μM, replicate columns): 0.8327 and 1.212 and 1.032
- Normalised V0 (BRISC; [Inhibitor] 0.0599997 μM, replicate columns): 1.019 and 1.179 and 1.007
- Normalised V0 (BRISC; [Inhibitor] 0.0799994 μM, replicate columns): 0.9329 and 1.215 and 0.984
- Normalised V0 (BRISC; [Inhibitor] 0.119998 μM, replicate columns): 0.8991 and 1.297 and 1.1131
- Normalised V0 (BRISC; [Inhibitor] 0.199996 μM, replicate columns): 0.9109 and 1.1 and 0.9714
- Normalised V0 (BRISC; [Inhibitor] 0.499975 μM, replicate columns): 0.8337 and 0.8541 and 0.839
- Normalised V0 (BRISC; [Inhibitor] 0.799936 μM, replicate columns): 0.8201 and 0.7671 and 0.7222
- Normalised V0 (BRISC; [Inhibitor] 1.25984 μM, replicate columns): 0.7744 and 0.5965 and 0.5179
- Normalised V0 (BRISC; [Inhibitor] 1.9996 μM, replicate columns): 0.7381 and 0.4197 and 0.4126
- Normalised V0 (BRISC; [Inhibitor] 3.159 μM, replicate columns): 0.4028 and 0.2971 and 0.3289
- Normalised V0 (BRISC; [Inhibitor] 5.19739 μM, replicate columns): 0.6152 and 0.3188 and 0.3118
- Normalised V0 (BRISC; [Inhibitor] 7.99364 μM, replicate columns): 0.4919 and 0.2336 and 0.2963
- Normalised V0 (BRISC; [Inhibitor] 12.7839 μM, replicate columns): 0.5596 and 0.3112 and 0.2492
- Normalised V0 (BRISC; [Inhibitor] 19.96 μM, replicate columns): 0.1876 and 0.174 and 0.161
- Normalised V0 (BRISC; [Inhibitor] 31.4999 μM, replicate columns): 0.1887 and 0.2421 and 0.2131
- Normalised V0 (BRISC; [Inhibitor] 50.147 μM, replicate columns): 0.05691 and 0.1395 and 0.2567
- Normalised V0 (BRISC; [Inhibitor] 79.7601 μM, replicate columns): 0.2227 and 0.2164 and 0.1439
- Normalised V0 (BRISC; [Inhibitor] 125.99 μM, replicate columns): 0.1622 and 0.2082 and 0.2077
- Normalised V0 (BRISC; [Inhibitor] 199.922 μM, replicate columns): 0.03119 and 0.1486 and 0.1232
- potency ranking over BRISC orthologs (BRISC; human vs mouse and zebrafish BRISC): highest potency toward human BRISC over mouse and zebrafish BRISC
- Normalised velocity (V0) (BRISC; inhibitor 0.000794328 μM): 1
- Normalised velocity (V0) (BRISC; inhibitor 0.00125892 μM): 0.9709 and 1.087
- Normalised velocity (V0) (BRISC; inhibitor 0.00199526 μM): 0.9893 and 1.074
- Normalised velocity (V0) (BRISC; inhibitor 0.00316228 μM): 1.07 and 1.182
- Normalised velocity (V0) (BRISC; inhibitor 0.00501187 μM): 1.042 and 1.106
- Normalised velocity (V0) (BRISC; inhibitor 0.00794328 μM): 1.04 and 1.13
- Normalised velocity (V0) (BRISC; inhibitor 0.0125893 μM): 0.9855 and 1.097
- Normalised velocity (V0) (BRISC; inhibitor 0.0199526 μM): 1.04 and 1.062
- Normalised velocity (V0) (BRISC; inhibitor 0.0316228 μM): 0.9173 and 1.065
- Normalised velocity (V0) (BRISC; inhibitor 0.0501187 μM): 0.915 and 1.002
- Normalised velocity (V0) (BRISC; inhibitor 0.0794328 μM): 0.8247 and 0.8903
- Normalised velocity (V0) (BRISC; inhibitor 0.125893 μM): 0.6057 and 0.745
- Normalised velocity (V0) (BRISC; inhibitor 0.199526 μM): 0.5727 and 0.6444
- Normalised velocity (V0) (BRISC; inhibitor 0.316228 μM): 0.4326 and 0.4719
- Normalised velocity (V0) (BRISC; inhibitor 0.398107 μM): 0.425 and 0.486
- Normalised velocity (V0) (BRISC; inhibitor 0.630957 μM): 0.3369 and 0.3696
- Normalised velocity (V0) (BRISC; inhibitor 1 μM): 0.2871 and 0.3028
- Normalised velocity (V0) (BRISC; inhibitor 1.58489 μM): 0.2427 and 0.2962
- Normalised velocity (V0) (BRISC; inhibitor 2.51189 μM): 0.2711 and 0.2368
- Normalised velocity (V0) (BRISC; inhibitor 3.98107 μM): 0.2213 and 0.2236
- Normalised velocity (V0) (BRISC; inhibitor 6.30957 μM): 0.121 and 0.1898
- Normalised velocity (V0) (BRISC; inhibitor 10 μM): 0.08882 and 0.07343
- Normalised velocity (V0) (BRISC; inhibitor 15.8489 μM): 0.08806 and 0.08498
- Normalised velocity (V0) (BRISC; inhibitor 25.1189 μM): 0
- Normalised velocity (V0) (BRISC; inhibitor 39.8107 μM): 0
- Normalised velocity (V0) (BRISC; inhibitor 63.0957 μM): 0
- Normalised velocity (V0) (BRISC; inhibitor 100 μM): 0
- percentage of live cells (THP-1 cells): 97.99%
